Converted amounts (≈) assume the structure as drawn. Counter-ions that a name gives are not always drawn. Like-named read-outs stand apart in the source and are kept apart here.
Experiments:
Experiment in all cases: Bacterial growth minimal inhibitory concentration, microdilution in cation-adjusted Mueller-Hinton Broth (CLSI M7-A7)
Assay type in all cases: cell-based
E. coli ATCC25922 = conditions: Escherichia coli
Method: (§1) Minimal Inhibitory Concentrations (MICs; mg/L) were determined in cation-adjusted Mueller-Hinton Broth by a microdilution method following the description given in “Methods for Dilution Antimicrobial Susceptibility Tests for Bacteria that Grow Aerobically”, Approved standard, 7th ed., Clinical and Laboratory Standards Institute (CLSI) Document M7-A7, Wayne, Pa., U.S.A. (2006).
(§2) All Example compounds were tested against several Gram-positive and Gram-negative bacteria. […] K. pneumoniae A-651 is a multiply-resistant strain (in particular quinolone-resistant), while E. coli ATCC25922 and P. aeruginosa ATCC27853 are quinolone-sensitive strains.

P. aeruginosa ATCC27853 = conditions: Pseudomonas aeruginosa
Method: as §1, §2

K. pneumoniae A-651 = conditions: Klebsiella pneumoniae
Method: as §1, §2

[1] = ATCC25922, quinolone-sensitive strain, read-out: MIC for E. coli ATCC25922
[2] = ATCC27853, quinolone-sensitive strain, read-out: MIC for P. aeruginosa ATCC27853
[3] = A651, multiply-resistant strain (in particular quinolone-resistant), read-out: MIC for K. Pneumoniae A-651

MIC (E. coli ATCC25922; [1]) [µg/mL]	MIC (P. aeruginosa ATCC27853; [2]) [µg/mL]	MIC (K. pneumoniae A-651; [3]) [µg/mL]	SMILES	MIC (E. coli ATCC25922; ATCC25922, read-out: MIC for E. coli ATCC25922) [µg/mL]	MIC (P. aeruginosa ATCC27853; ATCC27853, read-out: MIC for P. aeruginosa ATCC27853) [µg/mL]	MIC (K. pneumoniae A-651; A651, read-out: MIC for K. Pneumoniae A-651) [µg/mL]
8	8	32	C[C@@](CCn1cnc2cc(C#CC#CC3(C(O)CO)CC3)ccc2c1=O)(C(=O)NO)S(C)(=O)=O (mixture of isomers) [Example 19, (2R)-4-(7-((1-((RS)-1,2-dihydroxyethyl)cyclopropyl)buta-1,3-diyn-1-yl)-4-oxoquinazolin-3(4H)-yl)-N-hydroxy-2-methyl-2-(methylsulfonyl)butanamide]	–	–	–
1	16	2	CC(CCn1cnc2cc(-c3ccc(OCCCN4CCOCC4)cc3F)ccc2c1=O)(C(=O)NO)S(C)(=O)=O.O=CO (racemic) [RE1, (RS)-4-(7-(2-fluoro-4-(3-morpholinopropoxy)phenyl)-4-oxoquinazolin-3(4H)-yl)-N-hydroxy-2-methyl-2-(methylsulfonyl)butanamide formate]	–	–	–
1	8	2	CC(CCn1cnc2cc(-c3ccc(OCCCN4CCOCC4)cc3)ccc2c1=O)(C(=O)NO)S(C)(=O)=O.O=CO (racemic) [RE2, (RS)-N-hydroxy-2-methyl-2-(methylsulfonyl)-4-(7-(4-(3-morpholinopropoxy)phenyl)-4-oxoquinazolin-3(4H)-yl)butanamide formate]	–	–	–
2	16	4	CC(CCn1cnc2cc(-c3ccc(OCCN4CCOCC4)cc3F)ccc2c1=O)(C(=O)NO)S(C)(=O)=O.O=CO (racemic) [RE3, (RS)-4-(7-(2-fluoro-4-(2-morpholinoethoxy)phenyl)-4-oxoquinazolin-3(4H)-yl)-N-hydroxy-2-methyl-2-(methylsulfonyl)butanamide formate]	–	–	–
0.125 (≈ 0.27 µM)	8 (≈ 17.3 µM)	≤ 0.063	COc1cccc(-c2ccc3c(=O)n(CCC(C)(C(=O)NO)S(C)(=O)=O)cnc3c2)c1F (racemic) [RE4, (RS)-4-(7-(2-fluoro-3-methoxyphenyl)-4-oxoquinazolin-3(4H)-yl)-N-hydroxy-2-methyl-2-(methylsulfonyl)butanamide]	–	–	–
0.25 (≈ 0.539 µM)	16 (≈ 34.5 µM)	1 (≈ 2.16 µM)	COc1ccc(-c2ccc3c(=O)n(CCC(C)(C(=O)NO)S(C)(=O)=O)cnc3c2)cc1F (racemic) [RE5, (RS)-4-(7-(3-fluoro-4-methoxyphenyl)-4-oxoquinazolin-3(4H)-yl)-N-hydroxy-2-methyl-2-(methylsulfonyl)butanamide]	–	–	–
0.125 (≈ 0.273 µM)	16 (≈ 34.9 µM)	0.125 (≈ 0.273 µM)	CN(C)c1ccc(-c2ccc3c(=O)n(CCC(C)(C(=O)NO)S(C)(=O)=O)cnc3c2)cc1 (racemic) [RE6, (RS)-4-(7-(4-(dimethylamino)phenyl)-4-oxoquinazolin-3(4H)-yl)-N-hydroxy-2-methyl-2-(methylsulfonyl)butanamide]	–	–	–
2 (≈ 4.49 µM)	16 (≈ 35.9 µM)	8 (≈ 18 µM)	CC(CCn1cnc2cc(-c3ccc(CO)cc3)ccc2c1=O)(C(=O)NO)S(C)(=O)=O (racemic) [RE7, (RS)-N-hydroxy-4-(7-(4-(hydroxymethyl)phenyl)-4-oxoquinazolin-3(4H)-yl)-2-methyl-2-(methylsulfonyl)butanamide]	–	–	–
1	16	2	CC(CCn1cnc2cc(-c3ccc(CN4CCOCC4)cc3)ccc2c1=O)(C(=O)NO)S(C)(=O)=O.O=CO (racemic) [RE8, (RS)-N-hydroxy-2-methyl-2-(methylsulfonyl)-4-(7-(4-(morpholinomethyl)phenyl)-4-oxoquinazolin-3(4H)-yl)butanamide formate]	–	–	–
0.25 (≈ 0.577 µM)	16 (≈ 36.9 µM)	≤ 0.063	CC(CCn1cnc2cc(-c3ccccc3)c(F)cc2c1=O)(C(=O)NO)S(C)(=O)=O (racemic) [RE9, (RS)-4-(6-fluoro-4-oxo-7-phenylquinazolin-3(4H)-yl)-N-hydroxy-2-methyl-2-(methylsulfonyl)butanamide]	–	–	–
0.25 (≈ 0.532 µM)	16 (≈ 34.1 µM)	1 (≈ 2.13 µM)	CC(CCn1cnc2cc(C#Cc3ccc(CO)cc3)ccc2c1=O)(C(=O)NO)S(C)(=O)=O (racemic) [RE10, (RS)-N-hydroxy-4-(7-((4-(hydroxymethyl)phenyl)ethynyl)-4-oxoquinazolin-3(4H)-yl)-2-methyl-2-(methylsulfonyl)butanamide]	–	–	–
1 (≈ 1.95 µM)	8 (≈ 15.6 µM)	1 (≈ 1.95 µM)	CC(CCn1cnc2cc(C#Cc3ccc(C4(O)COC4)cc3)ccc2c1=O)(C(=O)NO)S(C)(=O)=O (racemic) [RE11, (RS)-N-hydroxy-4-(7-((4-(3-hydroxyoxetan-3-yl)phenyl)ethynyl)-4-oxoquinazolin-3(4H)-yl)-2-methyl-2-(methylsulfonyl)butanamide]	–	–	–
0.5	16	0.5	CC(CCn1cnc2cc(C#Cc3ccc(CN4CCOCC4)cc3)ccc2c1=O)(C(=O)NO)S(C)(=O)=O.O=CO (racemic) [RE12, (RS)-N-hydroxy-2-methyl-2-(methylsulfonyl)-4-(7-((4-(morpholinomethyl)phenyl)ethynyl)-4-oxoquinazolin-3(4H)-yl)butanamide formate]	–	–	–
0.25 (≈ 0.526 µM)	1 (≈ 2.1 µM)	0.5 (≈ 1.05 µM)	C[C@@](CCn1cnc2cc(C#CC#C[C@@]3(F)C[C@@H]3CO)ccc2c1=O)(C(=O)NO)S(C)(=O)=O (relative stereo) [Example 30, (R)-4-(7-(((1R*,2R*)-1-fluoro-2-(hydroxymethyl)cyclopropyl)buta-1,3-diyn-1-yl)-4-oxoquinazolin-3(4H)-yl)-N-hydroxy-2-methyl-2-(methylsulfonyl)butanamide]	–	–	–
0.25 (≈ 0.526 µM)	0.5 (≈ 1.05 µM)	0.5 (≈ 1.05 µM)	C[C@@](CCn1cnc2cc(C#CC#C[C@H]3C[C@]3(F)CO)ccc2c1=O)(C(=O)NO)S(C)(=O)=O (relative stereo) [Example 33, (R)-4-(7-(((1R*,2R*)-2-fluoro-2-(hydroxymethyl)cyclopropyl)buta-1,3-diyn-1-yl)-4-oxoquinazolin-3(4H)-yl)-N-hydroxy-2-methyl-2-(methylsulfonyl)butanamide]	–	–	–
≤ 0.063	4 (≈ 8.63 µM)	0.25 (≈ 0.539 µM)	COc1ccc(-c2ccc3c(=O)n(CC[C@](C)(C(=O)NO)S(C)(=O)=O)cnc3c2)c(F)c1 (single isomer, unassigned) [Example 1]	–	–	–
0.25 (≈ 0.602 µM)	8 (≈ 19.3 µM)	≤ 0.063	C[C@@](CCn1cnc2cc(-c3ccccc3)ccc2c1=O)(C(=O)NO)S(C)(=O)=O (single isomer, unassigned) [Example 2]	–	–	–
0.125 (≈ 0.273 µM)	1 (≈ 2.19 µM)	0.5 (≈ 1.09 µM)	C[C@@](CCn1cnc2cc(C#CC#C[C@H]3C[C@@H]3CO)ccc2c1=O)(C(=O)NO)S(C)(=O)=O [Example 3, (R)-N-hydroxy-4-(7-(((1S,2S)-2-(hydroxymethyl)cyclopropyl)buta-1,3-diyn-1-yl)-4-oxoquinazolin-3(4H)-yl)-2-methyl-2-(methylsulfonyl)butanamide]	–	–	–
4 (≈ 8.71 µM)	4 (≈ 8.71 µM)	4 (≈ 8.71 µM)	C[C@@](CCn1cnc2cc(C#CC#CC3(O)COC3)ccc2c1=O)(C(=O)NO)S(C)(=O)=O [Example 4, (R)-N-hydroxy-4-(7-((3-hydroxyoxetan-3-yl)buta-1,3-diyn-1-yl)-4-oxoquinazolin-3(4H)-yl)-2-methyl-2-(methylsulfonyl)butanamide]	–	–	–
≤ 0.063	1 (≈ 2.19 µM)	0.25 (≈ 0.546 µM)	C[C@@](CCn1cnc2cc(C#CC#C[C@@H]3C[C@H]3CO)ccc2c1=O)(C(=O)NO)S(C)(=O)=O [Example 5, (R)-N-hydroxy-4-(7-(((1R,2R)-2-(hydroxymethyl)cyclopropyl)buta-1,3-diyn-1-yl)-4-oxoquinazolin-3(4H)-yl)-2-methyl-2-(methylsulfonyl)butanamide]	–	–	–
0.25 (≈ 0.546 µM)	2 (≈ 4.37 µM)	1 (≈ 2.19 µM)	C[C@@](CCn1cnc2cc(C#CC#CC3(CO)CC3)ccc2c1=O)(C(=O)NO)S(C)(=O)=O [Example 6, (R)-N-hydroxy-4-(7-((1-(hydroxymethyl)cyclopropyl)buta-1,3-diyn-1-yl)-4-oxoquinazolin-3(4H)-yl)-2-methyl-2-(methylsulfonyl)butanamide]	–	–	–
–	–	–	CC(C)(N)C#CC#Cc1ccc2c(=O)n(CC[C@](C)(C(=O)NO)S(C)(=O)=O)cnc2c1 [Example 7, (R)-4-(7-(5-amino-5-methylhexa-1,3-diyn-1-yl)-4-oxoquinazolin-3(4H)-yl)-N-hydroxy-2-methyl-2-(methylsulfonyl)butanamide formate]	1	2	4
0.125 (≈ 0.259 µM)	4 (≈ 8.27 µM)	0.25 (≈ 0.517 µM)	C[C@@](CCn1cnc2cc(C#Cc3ccc(CCO)cc3)ccc2c1=O)(C(=O)NO)S(C)(=O)=O [Example 8, (R)-N-hydroxy-4-(7-((4-(2-hydroxyethyl)phenyl)ethynyl)-4-oxoquinazolin-3(4H)-yl)-2-methyl-2-(methylsulfonyl)butanamide]	–	–	–
0.125 (≈ 0.263 µM)	1 (≈ 2.1 µM)	0.25 (≈ 0.526 µM)	C[C@@](CCn1cnc2cc(C#CC#C[C@H]3C[C@@H]3CO)c(F)cc2c1=O)(C(=O)NO)S(C)(=O)=O [Example 9, (R)-4-(6-fluoro-7-(((1S,2S)-2-(hydroxymethyl)cyclopropyl)buta-1,3-diyn-1-yl)-4-oxoquinazolin-3(4H)-yl)-N-hydroxy-2-methyl-2-(methylsulfonyl)butanamide]	–	–	–

From patent US9796686B2, “Antibacterial quinazoline-4(3H)-one derivatives” (priority 2014, dated 2017)
